Among the data in US20110257171A1, “NOVEL IMIDAZO[1,2-A]PYRIDINE DERIVATIVES, METHOD FOR THE PREPARATION THEREOF, USE THEREOF AS MEDICAMENTS, PHARMACEUTICAL COMPOSITIONS AND NOVEL USE IN PARTICULAR AS MET INHIBITORS” (SANOFI-AVENTIS, priority 2008, published 2011) are melting point and IC50 values, retold here.

Data set [1] has as its target T1, MET (Homo sapiens, UniProt P08581). The data set is described as follows: Test B: inhibition of the autophosphorylation of MET, ELISA technique (pppY1230, 1234, 1235) in MKN45 cells. It is filed as cell-based. The conditions noted are these: 1 h treatment, phosphoMET ELISA. On the set-up: endogenous in cells; host or cells: MKN45 cells. On the procedure: B) Test B: Inhibition of the Autophosphorylation of Met; ELISA Technique (pppY1230, 1234, 1235) a) Cell lysates: MKN45 cells are seeded into 96-well plates (cell coat BD polylysine) at 20 000 cells/well in 200 μl of RPMI medium+10% FCS+1% L-glutamine. They are left to adhere for 24 hours in an incubator.
The cells are treated the day after seeding with the products at 6 concentrations, in duplicate, for 1 h. At least 3 control wells are treated with the same final amount of DMSO.
Product dilution: Stock at 10 mM in pure DMSO—range from 10 mM to 30 μM with an increment of 3 in pure DMSO—intermediate dilutions to 1/50 in culture medium and then removal of 10 μl added directly to the cells (200 μl): final range of 10 000 to 30 nM.
At the end of the incubation, the supernatant is carefully removed and rinsing is performed with 200 μl of PBS. Next, 100 μl of lysis buffer are placed directly in the wells on ice and incubated at 4° C. for 30 minutes. Lysis buffer: 10 mM Tris HCl, pH 7.4, 100 mM NaCl, 1 mM EDTA, 1 mM EGTA, 1% Triton X-100, 10% glycerol, 0.1% SDS, 0.5% deoxycholate, 20 mM NaF, 2 mM Na3VO4, 1 mM PMSF and cocktail of antiproteases.
The 100 μl of lysates are transferred into a V-bottomed polypropylene plate and the ELISA is performed immediately, or the plate is frozen at −80° C.
70 μl of kit dilution buffer+30 μL of cell lysate, or 30 μl of lysis buffer for the blanks, are added to each well of the kit plate. Incubation is carried out for 2 h with gentle agitation at ambient temperature.
The wells are rinsed 4 times with 400 μl of kit washing buffer. Incubation is carried out with 100 μl of anti-phospho MET antibody for 1 hour at ambient temperature.
The wells are rinsed 4 times with 400 μl of kit washing buffer. Incubation is carried out with 100 μl of anti-rabbit HRP antibody for 30 minutes at ambient temperature (except for the wells of chromogen alone).
The wells are rinsed 4 times with 400 μl of kit washing buffer. 100 μL of chromogen are introduced and incubation is carried out for 30 minutes in the dark at ambient temperature.
The reaction is stopped with 100 μl of stop solution. The plate is read without delay at […], 0.1 second on a Wallac Victor plate reader.
Target sequence in this assay (P08581 25-1390): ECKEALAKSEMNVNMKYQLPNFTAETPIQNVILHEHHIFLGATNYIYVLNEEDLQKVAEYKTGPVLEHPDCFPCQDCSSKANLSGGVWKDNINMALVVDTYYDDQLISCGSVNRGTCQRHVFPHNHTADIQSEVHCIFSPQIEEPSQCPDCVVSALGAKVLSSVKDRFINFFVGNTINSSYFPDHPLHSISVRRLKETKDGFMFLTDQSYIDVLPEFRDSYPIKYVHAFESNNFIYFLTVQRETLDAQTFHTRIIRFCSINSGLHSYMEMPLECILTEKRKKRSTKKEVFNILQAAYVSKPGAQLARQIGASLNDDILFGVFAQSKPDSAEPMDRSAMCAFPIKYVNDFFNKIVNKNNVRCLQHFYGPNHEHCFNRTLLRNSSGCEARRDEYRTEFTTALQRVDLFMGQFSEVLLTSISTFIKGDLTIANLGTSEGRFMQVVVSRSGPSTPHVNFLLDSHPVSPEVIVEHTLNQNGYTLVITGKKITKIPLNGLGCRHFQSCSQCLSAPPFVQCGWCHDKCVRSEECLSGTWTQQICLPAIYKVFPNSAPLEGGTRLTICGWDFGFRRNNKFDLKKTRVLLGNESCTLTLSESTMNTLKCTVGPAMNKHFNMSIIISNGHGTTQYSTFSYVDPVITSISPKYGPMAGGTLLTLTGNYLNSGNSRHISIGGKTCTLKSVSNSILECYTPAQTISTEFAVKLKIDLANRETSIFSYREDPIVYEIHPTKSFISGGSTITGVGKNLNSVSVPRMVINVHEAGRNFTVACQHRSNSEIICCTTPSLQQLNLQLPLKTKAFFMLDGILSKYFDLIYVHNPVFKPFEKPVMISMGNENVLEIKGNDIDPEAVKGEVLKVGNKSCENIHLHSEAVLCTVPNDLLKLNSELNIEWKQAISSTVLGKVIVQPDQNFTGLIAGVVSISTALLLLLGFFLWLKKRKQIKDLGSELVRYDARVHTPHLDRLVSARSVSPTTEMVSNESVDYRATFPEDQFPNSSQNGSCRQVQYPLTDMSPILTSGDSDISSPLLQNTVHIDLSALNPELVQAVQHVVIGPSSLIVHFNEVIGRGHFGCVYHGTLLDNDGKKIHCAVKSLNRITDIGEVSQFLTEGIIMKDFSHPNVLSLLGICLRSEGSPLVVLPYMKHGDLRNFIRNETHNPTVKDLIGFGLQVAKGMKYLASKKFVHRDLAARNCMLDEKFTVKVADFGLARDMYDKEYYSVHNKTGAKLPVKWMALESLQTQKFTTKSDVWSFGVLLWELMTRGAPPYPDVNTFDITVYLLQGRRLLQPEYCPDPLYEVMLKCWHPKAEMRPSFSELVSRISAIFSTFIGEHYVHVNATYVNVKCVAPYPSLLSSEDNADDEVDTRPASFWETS
On the technique in general: ELISA stands for enzyme-linked immunosorbent assay.

Data set [2] relates to HCT116 cells and MKN45 cells. Briefly: Test C: measurement of cell proliferation by 14C-thymidine pulse. It is filed as cell-based. Conditions: 14C-thymidine incorporation, 96 h of treatment; cell line not given. On the procedure:
The cells are seeded into Cytostar 96-well plates in 180 μl for 4 hours at 37° C. and 5% CO2: HCT116 cells in a proportion of 2500 cells per well in DMEM medium+10% foetal calf serum+1% L-glutamine, and MKN45 cells in a proportion of 7500 cells per well in RPMI medium+10% foetal calf serum+1% L-glutamine. After these 4 hours of incubation, the products are added in 10 μl as a […] concentrated solution according to the dilution method mentioned for the ELISA. The products are tested at 10 concentrations in duplicate from 10 000 nM to 0.3 nM with an increment of 3.
After treatment for 72 h, 10 μl of ^14C-thymidine at 10 μCi/ml are added so as to obtain 0.1 μCi per well. The ^14C-thymidine incorporation is measured on a Micro-Beta machine (Perkin-Elmer) after 24 hours of pulse and 96 h of treatment.
All the steps of the assay are automated on BIOMEK 2000 or TECAN stations.
Background: Dividing cells build labelled thymidine or BrdU into new DNA.

Data set [3] concerns the target T1, MET. Briefly: Test A: HTRF MET assay in 96-well format. It is filed as biochemical. The arrangement: The His-Tev-MET (956-1390) recombinant DNA in pFastBac (Invitrogen) is transfected into insect cells; His (N, cleaved yes); Tev cleavage site (N); made in house; host or cells: SF21 insect cells (baculovirus, pFastBac). Conditions: MET 5 nM, 10 μM ATP. The procedure:
The His-Tev-MET (956-1390) recombinant DNA in pFastBac (Invitrogen) is transfected into insect cells and, after several viral amplification steps, the final baculovirus stock is tested for the expression of the protein of interest.
After infection for 72 h at 27° C. with the recombinant virus, SF21 cell cultures are harvested by centrifugation and the cell pellets are stored at −80° C.
The cell pellets are resuspended in the lysis buffer (buffer A [50 mM HEPES, pH 7.5, 250 mM NaCl, 10% glycerol, 1 mM TECP]; +cocktail of protease inhibitors, Roche Diagnostics, without EDTA, ref 1873580), stirred at 4° C. until the mixture is homogeneous, and then lysed mechanically using a “Dounce” type apparatus.
After centrifugation, the lysis supernatant is incubated for 2 h at 4° C. with nickel chelate resin (His-Trap 6 Fast Flow™, GE HealthCare). After washing with 20 volumes of buffer A, the suspension is packed into a column, and the proteins are eluted with a gradient of buffer B (buffer A+290 mM imidazole).
The fractions containing the protein of interest, for the purpose of electrophoretic analysis (SDS PAGE), are combined, concentrated by ultrafiltration (10 kDa cut-off) and injected onto an exclusion chromatography column (Superdex® 200, GE HealthCare) equilibrated in buffer A.
After enzymatic cleavage of the histidine tag, the protein is reinjected onto a new IMAC nickel chelate chromatography column (His-Trap 6 Fast Flow™ GE HealthCare) equilibrated in buffer A. The fractions eluted with a gradient of buffer B and containing the protein of interest after electrophoresis (SDS PAGE) are finally combined and stored at −80° C.
For the production of autophosphorylated protein, the previous fractions are incubated for 1 h at ambient temperature after the addition of 2 mM ATP, 2 mM MgCl2 and 4 mM Na3VO4. After the reaction has been stopped with 5 mM of EDTA, the reaction mixture is injected onto a HiPrep desalifying column (GE HealthCare) pre-equilibrated in buffer A+4 mM Na3VO4, and the fractions containing the protein of interest (SDS PAGE analysis) are combined and stored at −80° C. The degree of phosphorylation is verified by mass spectrometry (LC-MS) and by peptide mapping.
MET at a final concentration of 5 nM is incubated in a final volume of 50 μl of enzymatic reaction in the presence of the test molecule (for a final concentration range of from 0.17 nM to 10 μM, 3% DMSO final concentration) in 10 mM MOPS buffer, pH 7.4, 1 mM DTT, 0.01% Tween 20. The reaction is initiated with the substrate solution to obtain final concentrations of 1 μg/ml poly-(GAT), 10 μM ATP and 5 mM MgCl2. After incubation for 10 min at ambient temperature, the reaction is stopped with a 30 μl mix so as to obtain a final solution of 50 mM Hepes, pH 7.5, 500 mM potassium fluoride, 0.1% BSA and 133 mM EDTA in the presence of 80 ng of streptavidin 61 SAXLB Cis-Bio Int. and 18 ng of anti-phosphotyrosine Mab PT66-Europium Cryptate per well. After incubation for 2 hours at ambient temperature, the reading is taken at 2 wavelengths, 620 nm and 665 nm, on a reader for the TRACE/HTRF technique, and the % inhibition is calculated from the 665/620 ratios.
Target sequence in this assay (P08581 956-1390): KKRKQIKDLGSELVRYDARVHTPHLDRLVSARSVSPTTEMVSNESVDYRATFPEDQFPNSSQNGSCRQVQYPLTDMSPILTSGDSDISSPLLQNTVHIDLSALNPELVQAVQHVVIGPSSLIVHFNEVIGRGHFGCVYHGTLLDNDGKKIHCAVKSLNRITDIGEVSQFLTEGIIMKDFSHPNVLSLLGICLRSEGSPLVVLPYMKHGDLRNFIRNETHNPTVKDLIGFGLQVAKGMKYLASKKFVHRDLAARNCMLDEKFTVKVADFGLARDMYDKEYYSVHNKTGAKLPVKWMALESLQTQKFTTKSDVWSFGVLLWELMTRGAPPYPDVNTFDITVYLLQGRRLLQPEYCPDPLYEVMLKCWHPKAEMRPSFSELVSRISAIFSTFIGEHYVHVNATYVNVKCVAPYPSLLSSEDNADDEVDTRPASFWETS

Counter-ions that a name gives are not always drawn.

As usually defined, the melting point is the temperature of the solid-liquid transition. The molecule `O=C(Nc1nc2ccc(Sc3cnc4ccc(-c5cnn(C6CCNCC6)c5)cn34)cc2s1)C1CC1` (as salt: hydrochloride) [Example 12, N-[6-({6-[1-(piperidin-4-yl)1H-pyrazol-4-yl]imidazo[1,2-a]pyridin-3-yl}sulphanyl)-1,3-benzothiazol-2-yl]cyclopropanecarboxamide] yielded a melting point of 230 °C.

In general, IC50 refers to the concentration needed to halve the response being measured. Consider `O=C(Nc1nc2ccc(Sc3cnc4ccccn34)cc2s1)C1CC1` [Example 1, N-{[6-(imidazo[1,2-a]pyridin-3-yl)sulphanyl]-1,3-benzothiazol-2-yl}cyclopropanecarboxamide], for which the IC50 at MET [1] was less than 100 nM; in data set [2] it was less than 1000 nM; at MET [3], less than 100 nM.

`Nc1nc2ccc(Sc3cnc4ccc(-c5ccc(F)cc5)cn34)cc2s1` [Example 2, 6-{[6-(4-fluorophenyl)imidazo[1,2-a]pyridin-3-yl]sulphanyl}-1,3-benzothiazol-2-amine]: the melting point was 258 °C. This molecule also gave an IC50 at MET [1] greater than 500 nM. This molecule also had an IC50 in data set [2] of less than 1000 nM. The IC50 on MET [3] is less than 100 nM.

The molecule `O=C(Nc1nc2ccc(Sc3cnc4ccc(-c5ccc(F)cc5)cn34)cc2s1)C1CC1` [Example 3, N-(6-{[6-(4-fluorophenyl)imidazo[1,2-a]pyridin-3-yl]sulphanyl}-1,3-benzothiazol-2-yl)cyclopropanecarboxamide] came in with a melting point of 265 °C. The IC50 on MET [1] was less than 100 nM. The same molecule yielded an IC50 in data set [2] of less than 1000 nM. Also, the IC50 at MET [3] was less than 100 nM.

As for `CC(=O)Nc1nc2ccc(Sc3cnc4ccc(-c5ccc(F)cc5)cn34)cc2s1` [Example 4, N-(6-{[6-(4-fluorophenyl)imidazo[1,2-a]pyridin-3-yl]sulphanyl}-1,3-benzothiazol-2-yl)acetamide], the IC50 on MET [1] is less than 100 nM; in data set [2] it was less than 1000 nM; on MET [3], less than 100 nM.

`COCCNC(=O)Nc1nc2ccc(Sc3cnc4ccc(-c5ccc(F)cc5)cn34)cc2s1` [Example 5, 1-(6-{[6-(4-fluorophenyl)imidazo[1,2-a]pyridin-3-yl]sulphanyl}-1,3-benzothiazol-2-yl)-3-(2-methoxyethyl)urea]: the melting point is greater than 260 °C. In addition, the IC50 on MET [1] was less than 100 nM. The molecule further yielded an IC50 in data set [2] of less than 1000 nM. Besides, the IC50 on MET [3] is less than 100 nM.

In the case of `O=C(NCCN1CCOCC1)Nc1nc2ccc(Sc3cnc4ccc(-c5ccc(F)cc5)cn34)cc2s1` [Example 6, 1-(6-{[6-(4-fluorophenyl)imidazo[1,2-a]pyridin-3-yl]sulphanyl}-1,3-benzothiazol-2-yl)-3-[2-(morpholin-4-yl)ethyl]urea], the concentration for half-maximal inhibition (IC50) against MET [1] was less than 100 nM; in data set [2] it was less than 1000 nM; on MET [3] it was less than 100 nM.

In the case of `Cn1cc(-c2ccc3ncc(Sc4ccc5nc(NC(=O)C6CC6)sc5c4)n3c2)cn1` [Example 7, N-(6-{[6-(1-methyl-1H-pyrazol-4-yl)imidazo[1,2-a]pyridin-3-yl]sulphanyl}-1,3-benzothiazol-2-yl)cyclopropanecarboxamide], the figures for the IC50 (against MET [1]; in data set [2]; on MET [3]) were less than 100 nM, less than 1000 nM and less than 100 nM, respectively.

Turning to `O=C(Nc1nc2ccc(Sc3cnc4ccc(-c5cn[nH]c5)cn34)cc2s1)C1CC1` [Example 8, N-(6-{[6-(1H-pyrazol-4-yl)imidazo[1,2-a]pyridin-3-yl]sulphanyl}-1,3-benzothiazol-2-yl)cyclopropanecarboxamide], the IC50 was less than 100 nM at MET [1], less than 1000 nM in data set [2] and less than 100 nM on MET [3].

In turn, `O=C(Nc1nc2ccc(Sc3cnc4ccc(-c5cccc(F)c5)cn34)cc2s1)C1CC1` [Example 9, N-(6-{[6-(3-fluorophenyl)imidazo[1,2-a]pyridin-3-yl]sulphanyl}-1,3-benzothiazol-2-yl)cyclopropanecarboxamide] returned a melting point greater than 260 °C. The IC50 at MET [1] is less than 100 nM. In data set [2], this molecule returned an IC50 of less than 1000 nM. The IC50 at MET [3] is less than 100 nM.

`Cc1ccc(-c2ccc3ncc(Sc4ccc5nc(NC(=O)C6CC6)sc5c4)n3c2)cc1F` [Example 10, N-(6-{[6-((3-fluoro-4-methyl)phenyl)imidazo[1,2-a]pyridin-3-yl]sulphanyl}-1,3-benzothiazol-2-yl)cyclopropanecarboxamide] showed a melting point greater than 260 °C. The molecule further returned an IC50 on MET [1] of less than 100 nM. Also, in data set [2], the IC50 was less than 1000 nM. At MET [3], the IC50 is less than 100 nM.

Turning to `O=C(Nc1nc2ccc(Sc3cnc4ccc(-c5cnn(C6CCNCC6)c5)cn34)cc2s1)C1CC1` [Example 12, N-[6-({6-[1-(piperidin-4-yl)1H-pyrazol-4-yl]imidazo[1,2-a]pyridin-3-yl}sulphanyl)-1,3-benzothiazol-2-yl]cyclopropanecarboxamide], the results for the IC50 (against MET [1]; in data set [2]; on MET [3]) were less than 100 nM, less than 1000 nM and less than 100 nM, respectively.
